Patent publication US8288383B2, “3-methyl-2- ( (2S) -2- (4- (3-methyl-L, 2, 4-oxadiazol-5-YL) phenyl) morpholino) -6- (pyrim-idin-4-yl) pyrimidin-4 (3H) -one as tau protein kinase inhibitor” (Sanofi, priority 2007, dated 2012)
Like-named read-outs stand apart in the source and are kept apart here.

Tests used:
tau phosphorylation = assay: Inhibitory activity on tau phosphorylation in vivo (pS396 Western blot of mouse cortex); conditions: 10 mg/kg p.o., male CD-1 mice, cortex removed after 1 h, pS396 antibody; ** = statistically significant
Experimental: Test compound was administrated to male CD-1 mice of 5-6 weeks weighing 25-35 g (Charles River Japan, inc.) at 10 mg/kg p.o. (0.5% polyethylen glycol sorbitan monolaurate 80 (Tween80)/water suspension) and after 1 h, mice were decapitated and cortex was promptly removed, followed by being frozen in liquid N2. […] Protein concentrations were determined using DC protein assay kit (BIO-RAD). Supernatants were diluted with sample buffer (62.5 mM Tris-HCl, 25% glycerol, 2% SDS, 0.01% Bromophenol Blue, pH6.8) to adjust the protein concentrations around […] and then boiled for […]. Samples (10 μg) were separated on 10% sodium dodecyl sulfate-polyacrylamide electrophoresis (SDS-PAGE) mini slab gels and transferred onto polyvinylidene difluoride (PVDF) membranes. Membranes were incubated with phosphate buffered saline (PBS) containing 5% non-fat milk for 1h at room temperature and then probed with pS396 anti-body (BIOSOURCE) over night at 4° C. Anti-rabbit IgG horseradish peroxidase (HRP) conjugated anti-body (Promega) was used as secondary anti-body. Membranes were visualized by Enhanced ChemiLuminescence (ECL) kit (Amerasham Bioscience) and detected by LAS1000 (Fuji Photo Film).

CYP2D6 = CYP2D6 (Homo sapiens, UniProt P10635); assay: Inhibitory activity on CYP2D6 (human recombinant CYPs); type: in vitro ADME; conditions: human recombinant CYP2D6, substrate ethylene glycol ester of luciferin-6'-methyl ether, 37° C., read-out: CYP 2D6 inhibition, IC50 value
Chain of CYP2D6 (P10635 whole entry): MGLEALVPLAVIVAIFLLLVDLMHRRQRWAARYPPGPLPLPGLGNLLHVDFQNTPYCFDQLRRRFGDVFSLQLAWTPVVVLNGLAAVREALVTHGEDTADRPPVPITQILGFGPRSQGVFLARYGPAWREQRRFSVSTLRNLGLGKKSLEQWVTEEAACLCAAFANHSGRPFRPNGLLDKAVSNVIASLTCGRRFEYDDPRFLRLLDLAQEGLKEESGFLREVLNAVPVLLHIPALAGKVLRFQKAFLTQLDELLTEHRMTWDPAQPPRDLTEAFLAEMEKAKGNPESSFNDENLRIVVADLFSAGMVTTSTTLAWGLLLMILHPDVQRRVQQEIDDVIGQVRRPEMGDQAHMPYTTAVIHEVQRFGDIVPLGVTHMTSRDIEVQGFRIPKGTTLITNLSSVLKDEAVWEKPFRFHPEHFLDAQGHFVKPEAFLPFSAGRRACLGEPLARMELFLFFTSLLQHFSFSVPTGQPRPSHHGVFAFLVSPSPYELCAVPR
Experimental: The purpose of this pharmacokinetic study was to investigate the inhibitory effects of test compounds on the specific metabolic activity of human CYP isozymes using human recombinant CYPs in vitro. […] The specific substrate and positive control is ethylene glycol ester of luciferin-6′-methyl ether and quinidine, respectively. The substrate for the CYP isozyme was incubated with human recombinant CYPs in the presence or absence of the test compounds and the metabolic activity of the CYP isozyme was determined. The reaction mixture was preincubated at 37° C. without NADPH generating system. The reaction was started by the addition of NADPH generating system, and then terminated by the addition of acetonitrile. The activities of the human CYP isozymes were measured by fluorescence signal (CYP2D6) of reaction mixture. IC50 value for each compound was calculated by setting the data of reaction mixture without compound as 100% activity.

[1] = probe ethylene glycol ester of luciferin-6'-methyl ether

Row | IC50 (CYP2D6; [1]) [µM] | melting point | IC50 (CYP2D6) [µM] | SMILES | in vivo % phosphorylation against vehicle (tau phosphorylation)
1 | > 50 | – | – | Cn1c(N2CCOC(c3nc(-c4ccccc4)no3)C2)nc(-c2ccncn2)cc1=O (centres unmarked) [Compound 1, 1-Methyl-2-[2-(3-phenyl-[1,2,4]oxadiazol-5-yl)-morpholin-4-yl]-1H-[4,4′]bipyrimidinyl-6-one] | 92.12%
2 | > 25 | – | – | Cn1c(N2CCOC(c3noc(-c4ccccc4)n3)C2)nc(-c2ccncn2)cc1=O (centres unmarked) [Compound 2, 1-Methyl-2-[2-(5-phenyl-[1,2,4]oxadiazol-3-yl)-morpholin-4-yl]-1H-[4,4′]bipyrimidinyl-6-one] | –
3 | > 50 | 179.8 °C (dec.) | – | Cn1ccnc1-c1ccc(C2CN(c3nc(-c4ccncn4)cc(=O)n3C)CCO2)cc1 (centres unmarked) [Compound 4, 1-Methyl-2-{2-[4-(1-methyl-1H-imidazol-2-yl)-phenyl]-morpholin-4-yl}-1H-[4,4′]bipyrimidinyl-6-one] | –
4 | – | 219 °C (dec.) | > 50 | Cc1noc(-c2ccc([C@H]3CN(c4nc(-c5ccncn5)cc(=O)n4C)CCO3)cc2)n1 [Compound of the present invention, 3-Methyl-2-((2S)-2-(4-(3-methyl-1,2,4-oxadiazol-5-yl)phenyl)morpholino)-6-(pyrimidin-4-yl)pyrimidin-4(3H)-one] | 69.86** %
